Reference: ChEMBL document CHEMBL3045182, “Synthesis and biological evaluation of some stilbene-based analogues” (Med Chem Res, 2011)
Activity calls are given as the source filed them. The rule behind the calls is not given here.

Assays:
Penicillium chrysogenum = experiment: Antifungal activity against Penicillium chrysogenum by poison plate assay method; assay type: functional, organism-based
[1] = test system: Radical scavenging activity; experiment: Antioxidant activity assessed as DPPH radical scavenging activity at 2500 ug/ml; assay type: functional
Aspergillus niger = experiment: Antifungal activity against Aspergillus niger by poison plate assay method; assay type: functional, organism-based
[2] = test system: Radical scavenging activity; experiment: Antioxidant activity assessed as DPPH radical scavenging activity at 1500 ug/ml; assay type: functional
Escherichia coli = experiment: Antibacterial activity against Escherichia coli by agar cup-plate assay method; assay type: functional
Staphylococcus aureus = experiment: Antibacterial activity against Staphylococcus aureus by agar cup-plate assay method; assay type: functional
[3] = test system: Radical scavenging activity; experiment: Antioxidant activity assessed as DPPH radical scavenging activity at 1000 ug/ml; assay type: functional
[4] = test system: Radical scavenging activity; experiment: Antioxidant activity assessed as DPPH radical scavenging activity at 500 ug/ml; assay type: functional
[5] = test system: Radical scavenging activity; experiment: Antioxidant activity assessed as DPPH radical scavenging activity at 20 ug/ml; assay type: functional
[6] = test system: Radical scavenging activity; experiment: Antioxidant activity assessed as DPPH radical scavenging activity at 40 ug/ml; assay type: functional
[7] = test system: Radical scavenging activity; experiment: Antioxidant activity assessed as DPPH radical scavenging activity at 30 ug/ml; assay type: functional
[8] = test system: Radical scavenging activity; experiment: Antioxidant activity assessed as DPPH radical scavenging activity at 50 ug/ml; assay type: functional

SMILES	inhibition zone (IZ) (Penicillium chrysogenum)	Activity [1] [%]	inhibition zone (IZ) (Aspergillus niger)	Activity [2] [%]	inhibition zone (IZ) (Escherichia coli)	inhibition zone (IZ) (Staphylococcus aureus)	Activity [3] [%]	Activity [4] [%]	Activity [5] [%]	Activity [6] [%]	Activity [7] [%]	Activity [8] [%]
Cc1ccc(/C=C/c2ccc(C)cc2)cc1 [(E)-1,2-DI-P-TOLYLETHENE]	inactive	38	inactive	37.1	inactive	20 mm	35.7	34.9	–	–	–	–
Clc1cccc(/C=C/c2ccc(Cl)cc2Cl)c1	Active	61.4	inactive	56.1	inactive	26 mm	49.7	44.7	–	–	–	–
Fc1ccc(/C=C/c2ccc(Cl)cc2)cc1	Active	45.5	inactive	41.6	inactive	20 mm	40.8	37.4	–	–	–	–
Cc1ccc(/C=C/c2ccc(Cl)cc2Cl)cc1	inactive	39.1	inactive	37.1	inactive	12 mm	36.4	34.8	–	–	–	–
CC1(C)S[C@@H]2[C@H](NC(=O)Cc3ccccc3)C(=O)N2[C@H]1C(=O)O [PENICILLIN G]	–	–	–	–	17 mm	40 mm	–	–	–	–	–	–
Clc1ccc(/C=C/c2ccc(Cl)cc2Cl)cc1	inactive	47.2	inactive	45.7	inactive	24 mm	43.5	41.3	–	–	–	–
Fc1ccc(/C=C/c2ccc(F)cc2F)cc1	inactive	52.5	inactive	50.3	inactive	30 mm	48	45.3	–	–	–	–
Fc1ccc(/C=C/c2ccc(F)c(F)c2)cc1	inactive	48.1	inactive	46.5	inactive	36 mm	44.6	43.9	–	–	–	–
O=C1O[C@H]([C@@H](O)CO)C(O)=C1O	–	–	–	–	–	–	–	–	80.9	92	86.7	94.7
COC1=CC(=O)C[C@@H](C)[C@]12Oc1c(Cl)c(OC)cc(OC)c1C2=O	Active	–	Active	–	–	–	–	–	–	–	–	–
Cc1ccc(/C=C/c2ccc(F)cc2)cc1	inactive	45.4	inactive	39.5	inactive	inactive	36.4	35.4	–	–	–	–
Fc1ccc(/C=C/c2ccc(F)cc2)cc1	Active	53.8	inactive	44.9	inactive	24 mm	37.4	35.2	–	–	–	–
Fc1ccc(/C=C/c2cccc(Cl)c2)cc1	Active	39.8	inactive	37.8	inactive	22 mm	35.6	33	–	–	–	–
Fc1ccc(/C=C/c2ccc(Cl)cc2Cl)cc1	Active	39.3	inactive	37.8	inactive	18 mm	37.1	35.2	–	–	–	–
Clc1ccc(/C=C/c2ccc(Cl)cc2Cl)c(Cl)c1	inactive	56.4	inactive	50.2	inactive	24 mm	48.7	44.6	–	–	–	–
Clc1ccc(/C=C/c2ccc(Cl)c(Cl)c2)c(Cl)c1	Active	58	inactive	54.2	inactive	28 mm	49.1	46.5	–	–	–	–
Fc1ccc(/C=C/c2cccc(F)c2)cc1	Active	49.5	inactive	47.1	inactive	28 mm	42.1	40.5	–	–	–	–
